Like-named read-outs stand apart in the source and are kept apart here. Values belong to the compound of their own block, whether it stands above or below them.
Molecular target: T1, CFTR (Homo sapiens, UniProt P13569, DEL508-508)
T1 construct: endogenous in cells; host or cells: primary human bronchial epithelial cells from CF subjects (F508del/MF-HBE), differentiated at air-liquid interface
Experiment: HBE assay: Ussing chamber assay of CFTR-mediated short-circuit currents
Type: cell-based
Conditions: for EC50: read-out: HBE EC50
Description: 1. Ussing Chamber Assay of CFTR-Mediated Short-Circuit Currents
(§1) Ussing chamber experiments were performed using human bronchial epithelial (HBE) cells derived from CF subjects heterozygous for F508del and a minimal function CFTR mutation (F508del/MF-HBE) and cultured as previously described (Neuberger T, Burton B, Clark H, Van Goor F Methods Mol Biol 2011:741:39-54). After four days the apical media was removed, and the cells were grown at an air liquid interface for >14 days prior to use.
(§2) To isolate the CFTR-mediated short-circuit (ISC) current, F508del/MF-HBE grown on Costar® Snapwell™ cell culture inserts were mounted in an Ussing chamber and the transepithelial ISC was measured under voltage-clamp recording conditions (Vhold=0 mV) at 37° C. The basolateral solution contained (in mM) 145 NaCl, 0.83 K2HPO4, 3.3 KH2PO4, 1.2 MgCl2, 1.2 CaCl2), 10 Glucose, 10 HEPES (pH adjusted to 7.4 with NaOH) and the apical solution contained (in mM) 145 NaGluconate, 1.2 MgCl2, 1.2 CaCl2), 10 glucose, 10 HEPES (pH adjusted to 7.4 with NaOH) and 30 μM amiloride to block the epithelial sodium channel. Forskolin (20 μM) was added to the apical surface to activate CFTR, followed by apical addition of a CFTR inhibitor cocktail consisting of BPO, GlyH-101, and CFTR inhibitor 172 (each at 20 μM final assay concentration) to specifically isolate CFTR currents. The CFTR-mediated ISC (μA/cm^2) for each condition was determined from the peak forskolin response to the steady-state current following inhibition.
2. Identification of Corrector Compounds
The activity of the CFTR corrector compounds on the CFTR-mediated ISC was determined in Ussing chamber studies as described above. The F508del/MF-HBE cell cultures were either incubated with the corrector compounds at a range of concentrations in combination with 1 μM Ivacaftor or were incubated with the corrector compounds at a single fixed concentration of 10 μM in combination with 1 μM Ivacaftor for 18-24 hours at 37° C. and in the presence of 20% human serum. The concentration of corrector compounds with 1 μM Ivacaftor during the 18-24 hours incubations was kept constant throughout the Ussing chamber measurement of the CFTR-mediated ISC to ensure compounds were present throughout the entire experiment.
Ussing Chamber Assay of CFTR-mediated short-circuit currents
as §1, with “(HIBE)” for “(HBE)”, “(F508del/MIF-HIBE)” for “(F508del/MF-HBE)”
as §2, with “KH2PO4,” for “K2HPO4,”
Identification of Corrector Compounds

[1] = Table 13, read-out: HBE Activity at 10 μM (%)
[2] = Table 11, read-out: HBE Max Activity (%)
[3] = Table 13, read-out: HBE Max Activity (%)
[4] = Table 10, read-out: HBE Max activity (%)
[5] = Table 10, read-out: HBE activity at 10 (μM) (%)
[6] = Table 12, read-out: HBE Max Activity (%)
[7] = Table 12, read-out: HBE Activity at 10 μM (%)

T1 sequence (P13569 with tags, fused parts or gaps DEL508-508): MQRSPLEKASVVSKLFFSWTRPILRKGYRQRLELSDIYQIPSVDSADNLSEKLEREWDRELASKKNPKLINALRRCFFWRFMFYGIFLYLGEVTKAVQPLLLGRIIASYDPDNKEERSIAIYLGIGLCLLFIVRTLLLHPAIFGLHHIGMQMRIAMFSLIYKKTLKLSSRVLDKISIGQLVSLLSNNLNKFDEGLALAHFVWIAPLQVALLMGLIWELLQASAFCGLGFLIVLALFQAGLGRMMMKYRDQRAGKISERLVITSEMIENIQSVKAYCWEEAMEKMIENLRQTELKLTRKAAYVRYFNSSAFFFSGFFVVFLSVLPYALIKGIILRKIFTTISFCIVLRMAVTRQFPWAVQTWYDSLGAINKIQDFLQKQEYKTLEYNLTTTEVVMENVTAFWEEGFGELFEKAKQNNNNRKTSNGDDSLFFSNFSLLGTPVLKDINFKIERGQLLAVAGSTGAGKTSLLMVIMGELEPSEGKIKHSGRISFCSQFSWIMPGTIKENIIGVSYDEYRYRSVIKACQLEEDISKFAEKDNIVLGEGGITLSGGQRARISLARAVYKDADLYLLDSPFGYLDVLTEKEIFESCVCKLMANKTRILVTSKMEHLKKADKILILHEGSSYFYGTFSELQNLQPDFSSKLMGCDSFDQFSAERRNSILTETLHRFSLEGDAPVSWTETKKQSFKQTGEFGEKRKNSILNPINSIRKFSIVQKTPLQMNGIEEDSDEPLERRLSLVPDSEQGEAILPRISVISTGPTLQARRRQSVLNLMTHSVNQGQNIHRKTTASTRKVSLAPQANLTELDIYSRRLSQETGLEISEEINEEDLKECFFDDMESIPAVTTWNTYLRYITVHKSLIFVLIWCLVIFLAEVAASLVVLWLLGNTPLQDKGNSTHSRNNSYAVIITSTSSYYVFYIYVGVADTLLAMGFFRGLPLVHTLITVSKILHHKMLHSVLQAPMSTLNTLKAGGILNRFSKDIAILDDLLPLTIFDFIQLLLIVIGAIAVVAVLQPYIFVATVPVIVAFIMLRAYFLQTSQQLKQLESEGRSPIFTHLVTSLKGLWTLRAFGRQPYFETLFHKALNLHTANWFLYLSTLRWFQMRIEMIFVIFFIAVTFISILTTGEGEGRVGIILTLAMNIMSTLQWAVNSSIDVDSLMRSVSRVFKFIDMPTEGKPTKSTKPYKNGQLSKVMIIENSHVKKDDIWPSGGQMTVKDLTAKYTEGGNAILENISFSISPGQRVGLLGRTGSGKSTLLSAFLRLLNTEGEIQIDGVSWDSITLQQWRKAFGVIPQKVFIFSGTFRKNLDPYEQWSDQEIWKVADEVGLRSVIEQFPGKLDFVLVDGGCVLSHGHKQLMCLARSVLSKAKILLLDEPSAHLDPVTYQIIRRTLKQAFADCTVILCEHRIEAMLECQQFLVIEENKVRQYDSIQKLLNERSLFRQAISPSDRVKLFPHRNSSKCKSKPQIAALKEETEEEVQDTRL

SMILES: Cc1cccc(C)c1-c1cc2nc(n1)NS(=O)(=O)c1cccc(c1)C(=O)N(CC1CC3(C1)CC(NC(=O)OC(C)C)C3)[C@H](CC(C)(C)C)CO2 (some centres unmarked) [Compound 1003]
- activation at 10 µM [1]: > 600%

SMILES: Cc1cccc(C)c1-c1cc2nc(n1)NS(=O)(=O)c1cccc(c1)C(=O)N(CC(=O)N1C[C@H](C)CC1(C)C)[C@H](CC(C)(C)C)CO2 [Compound 204]
- activation at 10 µM [1]: > 600%

SMILES: Cc1cccc(C)c1-c1cc2nc(n1)NS(=O)(=O)c1cccc(c1)C(=O)N(Cc1nccc(N(C)C3CC4(CC4)C3)n1)[C@H](CC(C)(C)C)CO2 [Compound 615]
- EC50 (Table 11): < 1000 nM
- Emax [2]: > 60%

SMILES: Cc1cccc(C)c1-c1cc2nc(n1)NS(=O)(=O)c1cccc(c1)C(=O)N(Cc1ccc(N3CC4(COC4)C3)cn1)[C@H](CC(C)(C)C)CO2 [Compound 1063]
- EC50 (Table 13): < 1000 nM
- Emax [3]: > 60%

SMILES: Cc1cccc(C)c1-c1cc2nc(n1)NS(=O)(=O)c1cccc(c1)C(=O)N(Cc1cccc(N3CCC[C@@H]3CC(C)C)n1)[C@H](CC(C)(C)C)CO2 (stereo in doubt) [Compound 1429]
- EC50 (HBE assay): < 1000 nM

SMILES: Cc1cccc(C)c1-c1cc2nc(n1)NS(=O)(=O)c1cccc(c1)C(=O)N(Cc1nc(C(C)(C)C)no1)[C@H](CC(C)(C)C)CO2 [Compound 1131]
- activation at 10 µM [1]: > 600%

SMILES: CNc1cccc(CN2C(=O)c3cccc(c3)S(=O)(=O)Nc3nc(cc(-c4c(C)cccc4C)n3)OC[C@H]2CC(C)(C)C)n1 [Compound 490]
- activation at 10 µM [5]: > 60%
- EC50 (Table 10): < 1000 nM
- Emax [4]: > 60%

SMILES: Cc1cccc(C)c1-c1cc2nc(n1)NS(=O)(=O)c1cccc(c1)C(=O)N(CC1CCN(c3ncccn3)CC1)[C@H](CC(C)(C)C)CO2 [Compound 109, (11R)-6-(2,6-Dimethylphenyl)-11-(2,2-dimethylpropyl)-2,2-dioxo-12-[(1-pyrimidin-2-yl-4-piperidyl)methyl]-9-oxa-2λ^6-thia-3,5,12,19-tetrazatricyclo[12.3.1.14,8]nonadeca-1(18),4(19),5,7,14,16-hexaen-13-one]
- EC50 (Table 10): < 1000 nM
- Emax [4]: > 60%

SMILES: COc1cccnc1CN1C(=O)c2cccc(c2)S(=O)(=O)Nc2nc(cc(-c3c(C)cccc3C)n2)OC[C@H]1CC(C)(C)C [Compound 382]
- EC50 (Table 10): < 1000 nM
- Emax [4]: > 60%

SMILES: CCN(c1cccc(CN2C(=O)c3cccc(c3)S(=O)(=O)Nc3nc(cc(-c4c(C)cccc4C)n3)OC[C@H]2CC(C)(C)C)n1)C(C)C [Compound 131, (11R)-6-(2,6-Dimethylphenyl)-11-(2,2-dimethylpropyl)-12-({6-[ethyl(propan-2-yl)amino]pyridin-2-yl}methyl)-9-oxa-2λ^6-thia-3,5,12,19-tetraazatricyclo[12.3.1.14,8]nonadeca-1(17),4,6,8(19),14(18),15-hexaene-2,2,13-trione]
- EC50 (Table 11): < 1000 nM
- Emax (read-out: HBE Max activity (%)): > 60%

SMILES: Cc1cccc(C)c1-c1cc2nc(n1)NS(=O)(=O)c1cccc(c1)C(=O)N(Cc1cncc(N3CC(C(=O)O)C(C(C)C)C3)n1)[C@H](CC(C)(C)C)CO2 (some centres unmarked) [Compound 263]
- activation at 10 µM [7]: 30 to 60%

SMILES: Cc1cccc(C)c1-c1cc2nc(n1)NS(=O)(=O)c1cccc(c1)C(=O)N(Cc1nccc(N)n1)[C@H](CC(C)(C)C)CO2 [Compound 645]
- EC50 (Table 11): < 1000 nM
- Emax [2]: > 60%

SMILES: Cc1cccc(C)c1-c1cc2nc(n1)NS(=O)(=O)c1cccc(c1)C(=O)N(Cc1cccc(N(CC3CCCO3)C(C)C)n1)[C@H](CC(C)(C)C)CO2 (some centres unmarked) [Compound 1446]
- HBE Max activity (%) (HBE assay): +++ (+++ is >60+)
- EC50 (HBE assay): < 1000 nM

SMILES: Cc1cccc(C)c1-c1cc2nc(n1)NS(=O)(=O)c1cccc(c1)C(=O)N(Cc1cc(C3CCOCC3)[nH]n1)[C@H](CC(C)(C)C)CO2 [Compound 449]
- activation at 10 µM [7]: > 600%

SMILES: Cc1cccc(C)c1-c1cc2nc(n1)NS(=O)(=O)c1cccc(c1)C(=O)N(Cc1cnc(N3CCOCC3)cn1)[C@H](CC(C)(C)C)CO2 [Compound 505]
- EC50 (Table 10): < 1000 nM
- Emax [4]: > 60%

SMILES: Cc1cncc(CN2C(=O)c3cccc(c3)S(=O)(=O)Nc3nc(cc(-c4c(C)cccc4C)n3)OC[C@H]2CC(C)(C)C)n1 [Compound 1069]
- EC50 (Table 11): < 1000 nM
- Emax [2]: > 60%

SMILES: Cc1cccc(C)c1-c1cc2nc(n1)NS(=O)(=O)c1cccc(c1)C(=O)N(Cc1nc3c(ccn3C(C)C)cc1F)[C@H](CC(C)(C)C)CO2 [Compound 1124]
- EC50 (Table 13): < 1000 nM
- Emax [3]: > 60%

SMILES: Cc1cccc(C)c1-c1cc2nc(n1)NS(=O)(=O)c1cccc(c1)C(=O)N(CC(=O)O)[C@H](CC(C)(C)C)CO2 [Compound 453]
- EC50 (Table 12): 3000 to 30000 nM
- Emax [6]: > 60%

SMILES: COc1ccc(CN2C(=O)c3cccc(c3)S(=O)(=O)Nc3nc(cc(-c4c(C)cccc4C)n3)OC[C@H]2CC(C)(C)C)cc1 [Compound 770]
- EC50 (Table 10): < 1000 nM
- Emax [4]: > 60%

The next lines start with the values.

- EC50 (Table 10): < 1000 nM
- Emax [4]: > 60%
SMILES: Cc1cccc(C)c1-c1cc2nc(n1)NS(=O)(=O)c1cccc(c1)C(=O)N(Cc1ccc(-c3c[nH]nc3C3CC3)cn1)[C@H](CC(C)(C)C)CO2 [Compound 297]

- activation at 10 µM [5]: > 60%
SMILES: CC(C)c1cccc(C(C)C)c1-c1cc2nc(n1)NS(=O)(=O)c1cccc(c1)C(=O)N(Cc1ccc(N3CCCCC3)cn1)[C@H](CC(C)(C)C)CO2 [Compound 829]

- EC50 (Table 12): < 1000 nM
- Emax [6]: > 60%
SMILES: Cc1cccc(C)c1-c1cc2nc(n1)NS(=O)(=O)c1cccc(c1)C(=O)N(CC(=O)N(C)Cc1ccccn1)[C@H](CC(C)(C)C)CO2 [Compound 221]

- EC50 (Table 11): < 1000 nM
- Emax [2]: > 60%
SMILES: Cc1cccc(C)c1-c1cc2nc(n1)NS(=O)(=O)c1cccc(c1)C(=O)N(Cc1nccc(C(C)(C)C)n1)[C@H](CC(C)(C)C)CO2 [Compound 814]

- activation at 10 µM [5]: > 60%
- EC50 (Table 10): < 1000 nM
- Emax [4]: > 60%
SMILES: Cc1cccc(C)c1-c1cc2nc(n1)NS(=O)(=O)c1cccc(c1)C(=O)N(Cc1ncccc1CCC(C)(C)ON)[C@H](CC(C)(C)C)CO2 [Compound 771]

- activation at 10 µM [5]: > 60%
SMILES: Cc1cccc(C)c1-c1cc2nc(n1)NS(=O)(=O)c1cccc(c1)C1Oc3nc4ccccc4cc3CN1[C@H](CC(C)(C)C)CO2 (some centres unmarked) [Compound 755]

- activation at 10 µM [1]: > 600%
SMILES: Cc1cccc(C)c1-c1cc2nc(n1)NS(=O)(=O)c1cccc(c1)C(=O)N(CC(=O)N1C[C@H](C)C[C@H](C)C1)[C@H](CC(C)(C)C)CO2 [Compound 181]

- EC50 (Table 12): < 1000 nM
- Emax [6]: > 60%
SMILES: Cc1cccc(C)c1-c1cc2nc(n1)NS(=O)(=O)c1cccc(c1)C(=O)N(Cc1ncc(N3CCC[C@H]3C)cn1)[C@H](CC(C)(C)C)CO2 [Compound 572]

- Emax [4]: > 60%
SMILES: Cc1cccc(C)c1-c1cc2nc(n1)NS(=O)(=O)c1cccc(c1)C(=O)N(Cc1ccc(NCC(C)(C)C)cn1)[C@H](CC(C)(C)C)CO2 [Compound 477]

- activation at 10 µM [7]: > 600%
SMILES: COc1cccc(C)c1-c1cc2nc(n1)NS(=O)(=O)c1cccc(c1)C(=O)N(Cc1cncc(N(C)CC(C)(C)C)n1)[C@H](CC(C)(C)C)CO2 [Compound 544]

- activation at 10 µM [1]: > 600%
SMILES: Cc1cccc(C)c1-c1cc2nc(n1)NS(=O)(=O)c1cccc(c1)C(=O)N(Cc1cccc(N3CCCC3C(C)(C)O)n1)[C@H](CC(C)(C)C)CO2 (some centres unmarked) [Compound 1123]

Reference: patent US20240150377A1, “MODULATORS OF CYSTIC FIBROSIS TRANSMEMBRANE CONDUCTANCE REGULATOR” (VERTEX PHARMACEUTICALS INCORPORATED, priority 2020, published 2024)
